Source: patent US20240131028A1, “CHEMOVACCINATION AGAINST PLASMODIUM INFECTION WITH SELECTIVE PLASMEPSIN X INHIBITORS” (Merck Sharp & Dohme LLC, priority 2021, published 2024)

Test system: ring stage parasites (Pf)
Assay: Parasite lactate dehydrogenase (LDH) growth assay (Parasite Assay, PfLDH Assay)
Assay type: cell-based, P. falciparum
Conditions: Plasmodium falciparum, 72 h, Table 3; 72 hours growth, LDH readout; read-out: EC50

First: CC1(C)CC(=O)N([C@@H](c2ccc(C#N)cc2)[C@H]2C[C@@H]2C(=O)N[C@H]2C[C@H](C(F)(F)F)Oc3ccccc32)C(=N)N1 [Example 47A]
Second: CC1(C)CC(=O)N([C@H](c2ccc(C#N)cc2)[C@H]2C[C@@H]2C(=O)N[C@H]2C[C@H](C(F)(F)F)Oc3ccccc32)C(=N)N1 [Example 47B]
The EC50 of the first is 170-fold higher: 155 nM for the first, 0.9 nM for the second.

First: CCC1(CC)CC(=O)N([C@H](c2cccnc2)[C@@H]2[C@@H](C(=O)N[C@H]3CC(C)(C)Oc4ccccc43)C2(C)C)C(=N)N1 [Example 48A]
Second: CCC1(CC)CC(=O)N([C@@H](c2cccnc2)[C@@H]2[C@@H](C(=O)N[C@H]3CC(C)(C)Oc4ccccc43)C2(C)C)C(=N)N1 [Example 48B]
The EC50 of the first is 2.7-fold lower: 2.7 nM for the first, 7.4 nM for the second. The first is the more potent here.

First: CC1(C)CC(=O)N(C(c2cccnc2)[C@@H]2[C@@H](C(=O)N[C@H]3CC(C)(C)Oc4ccccc43)C2(C)C)C(=N)N1 (some centres unmarked) [Example 49A]
Second: CC1[C@H]([C@@H](c2cccnc2)N2C(=N)NC(C)(C)CC2=O)[C@H]1C(=O)N[C@H]1CC(C)(C)Oc2ccccc21 (some centres unmarked) [Example 57A]
The EC50 of the first is 6.2-fold higher: 20 nM for the first, 3.2 nM for the second. The second is the more potent here.

`CC1(C)CC(=O)N([C@H](c2cccc(C#N)c2)[C@H]2C[C@@H]2C(=O)N[C@H]2CC(C)(C)Oc3ccccc32)C(=N)N1` [Example 50] and `CC1(C)CC(=O)N(C(c2cccc(C#N)c2)[C@H]2C[C@@H]2C(=O)NC2CC(C)(C)Oc3ccc(F)cc32)C(=N)N1` (some centres unmarked) [Example 53A] are within 1.5-fold of each other in EC50: 3 nM for the first, 3.1 nM for the second.

`CC1(C)CC(=O)N([C@H](c2cccc(C#N)c2)[C@H]2C[C@@H]2C(=O)N[C@@H]2c3ccccc3OC(C)(C)[C@H]2O)C(=N)N1` [Example 51] and `CC1(C)CC(=O)N([C@H](c2cncc(Cl)c2)[C@H]2C[C@@H]2C(=O)N[C@@H]2c3ccccc3OC(C)(C)[C@H]2O)C(=N)N1` [Example 59] are within 1.5-fold of each other in EC50: 5.3 nM for the first, 3.8 nM for the second.

First: CC1(C)CC(=O)N([C@H](c2cccc(C#N)c2)[C@H]2C[C@@H]2C(=O)N[C@H]2C[C@H](C(F)(F)F)Oc3ccccc32)C(=N)N1 [Example 52]
Second: CC1(C)CC(=O)N([C@H](c2cncc(Cl)c2)[C@H]2C[C@@H]2C(=O)N[C@H]2C[C@H](C(F)(F)F)Oc3ccccc32)C(=N)N1 [Example 60A]
The EC50 of the first is 2-fold higher: 1 nM for the first, 0.5 nM for the second. The second is the more potent here.

Compared with `CCC1(CC)CC(=O)N([C@@H](c2cccnc2)[C@H]2C(C)[C@@H]2C(=O)N[C@H]2CC(C)(C)Oc3ccccc32)C(=N)N1` (some centres unmarked) [Example 56A], `CCC1(CC)CC(=O)N([C@H](c2cccnc2)[C@H]2C(C)[C@@H]2C(=O)N[C@H]2CC(C)(C)Oc3ccccc32)C(=N)N1` (some centres unmarked) [Example 56B] is 93-fold lower in EC50: 65 nM for the first, 0.7 nM for the second.

Going from `CC1[C@H](C(c2cccnc2)N2C(=N)NC(C)(C)CC2=O)[C@H]1C(=O)N[C@H]1CC(C)(C)Oc2ccccc21` (some centres unmarked) [Example 57B] to `CC[C@]1(C)CC(=O)N([C@H](c2cccnc2)[C@H]2C[C@@H]2C(=O)N[C@H]2CC(C)(C)Oc3ccccc32)C(=N)N1` [Example 63], the EC50 falls from 100 nM to 1.2 nM (83-fold).

First: CC1(C)CC(=O)N([C@@H](c2cncc(Cl)c2)[C@H]2C[C@@H]2C(=O)N[C@H]2CC(C)(C)Oc3ccccc32)C(=N)N1 [Example 58A]
Second: CC1(C)CC(=O)N([C@H](c2cncc(Cl)c2)[C@H]2C[C@@H]2C(=O)N[C@H]2CC(C)(C)Oc3ccccc32)C(=N)N1 [Example 58B]
The EC50 of the first is 210-fold higher: 210 nM for the first, 1 nM for the second.

First: CC1(C)CC(=O)N([C@@H](c2cncc(Cl)c2)[C@H]2C[C@@H]2C(=O)N[C@H]2C[C@H](C(F)(F)F)Oc3ccccc32)C(=N)N1 [Example 60B]
Second: CC[C@]1(C)CC(=O)N([C@H](c2cncc(F)c2)[C@H]2C[C@@H]2C(=O)N[C@H]2C[C@H](C(F)(F)F)Oc3ccccc32)C(=N)N1 [Example 68]
The EC50 of the first is 330-fold higher: 100 nM for the first, 0.3 nM for the second.

First: CC[C@]1(C)CC(=O)N([C@H](CCOC)[C@H]2C[C@@H]2C(=O)N[C@@H]2c3ccccc3OC(C)(C)[C@H]2O)C(=N)N1 [Example 61]
Second: CC[C@]1(C)CC(=O)N([C@H](CCOC)[C@H]2C[C@@H]2C(=O)N[C@H]2CC(C)(C)Oc3ccccc32)C(=N)N1 [Example 64A]
The EC50 of the first is 3-fold higher: 6.9 nM for the first, 2.3 nM for the second.

Compared with `CC[C@]1(C)CC(=O)N([C@@H](CCOC)[C@H]2C[C@@H]2C(=O)N[C@H]2C[C@H](C(F)(F)F)Oc3ccccc32)C(=N)N1` [Example 62A], `CC[C@]1(C)CC(=O)N([C@H](CCOC)[C@H]2C[C@@H]2C(=O)N[C@H]2C[C@H](C(F)(F)F)Oc3ccccc32)C(=N)N1` [Example 62B] is 39-fold lower in EC50: 31 nM for the first, 0.8 nM for the second.

Going from `CC[C@]1(C)CC(=O)N([C@@H](CCOC)[C@H]2C[C@@H]2C(=O)N[C@H]2CC(C)(C)Oc3ccccc32)C(=N)N1` [Example 64B] to `CCC1(C)CC(NC(=O)[C@H]2C[C@@H]2[C@@H](CCOC)N2C(=N)NC(C)(C)CC2=O)c2ccccc2O1` (some centres unmarked) [Example 75A], the EC50 falls from 195 nM to 8.2 nM (24-fold). The second is the more potent here.

Compared with `CC[C@]1(C)CC(=O)N([C@H](c2cncc(F)c2)[C@H]2C[C@@H]2C(=O)N[C@@H]2c3ccccc3OC(C)(C)[C@H]2O)C(=N)N1` [Example 66], `CC[C@@]1(C)CC(=O)N(C(c2cncc(F)c2)[C@H]2C[C@@H]2C(=O)N[C@H]2CC(C)(C)Oc3ccccc32)C(=N)N1` (some centres unmarked) [Example 67A] is 2.9-fold lower in EC50: 2.6 nM for the first, 0.9 nM for the second.

Going from `COCC[C@H]([C@H]1C[C@@H]1C(=O)N[C@@H]1CC(C)(C)Oc2cc(OC)ccc21)N1C(=N)NC(C)(C)CC1=O` [Example 70A] to `COCC[C@H]([C@H]1C[C@@H]1C(=O)N[C@H]1CC(C)(C)Oc2cc(OC)ccc21)N1C(=N)NC(C)(C)CC1=O` [Example 70B], the EC50 falls from 77 nM to 19 nM (4.1-fold).

Going from `CC1(C)CC(=O)N(C[C@H]2C[C@@H]2C(=O)N[C@H]2CC(C)(C)Oc3ccc(F)cc32)C(=N)N1` [Example 71] to `Cc1ccc2c(c1)OC(C)(C)C[C@@H]2NC(=O)[C@H]1C[C@@H]1CN1C(=N)NC(C)(C)CC1=O` [Example 84], the EC50 rises from 125 nM to 289 nM (2.3-fold).

Going from `COCC[C@H]([C@H]1C[C@@H]1C(=O)N[C@@H]1CC(C)(C)Oc2ccc(F)cc21)N1C(=N)NC(C)(C)CC1=O` [Example 72A] to `COCC[C@H]([C@H]1C[C@@H]1C(=O)N[C@H]1CC(C)(C)Oc2ccc(F)cc21)N1C(=N)NC(C)(C)CC1=O` [Example 72B], the EC50 falls from 11 nM to 2.5 nM (4.4-fold). The second is the more potent here.

Compared with `COc1cccc2c1[C@@H](NC(=O)[C@H]1C[C@@H]1CN1C(=N)NC(C)(C)CC1=O)CC(C)(C)O2` [Example 73], `COCC[C@H]([C@H]1C[C@@H]1C(=O)N[C@@H]1CC(C)(C)Oc2cccc(OC)c21)N1C(=N)NC(C)(C)CC1=O` [Example 74A] is 5.8-fold lower in EC50: 192 nM for the first, 33 nM for the second. The second is the more potent here.

First: COCC[C@H]([C@H]1C[C@@H]1C(=O)N[C@H]1CC(C)(C)Oc2cccc(OC)c21)N1C(=N)NC(C)(C)CC1=O [Example 74B]
Second: COCC[C@H]([C@H]1C[C@@H]1C(=O)NC1CC(C)(C)Oc2cc(F)ccc21)N1C(=N)NC(C)(C)CC1=O (some centres unmarked) [Example 76A]
The EC50 of the first is 5.5-fold lower: 3.1 nM for the first, 17 nM for the second.

`CC1(C)CC(=O)N([C@H](c2cccnc2)[C@H]2C[C@@H]2C(=O)NC2CC(C)(C)Oc3cc(F)ccc32)C(=N)N1` (some centres unmarked) [Example 77A] and `Cc1ccc2c(c1)OC(C)(C)C[C@@H]2NC(=O)[C@H]1C[C@@H]1[C@@H](c1cccnc1)N1C(=N)NC(C)(C)CC1=O` [Example 85A] are within 1.5-fold of each other in EC50: 1.7 nM for the first, 2.4 nM for the second.

`CCC1(C)C[C@H](NC(=O)[C@H]2C[C@@H]2CN2C(=N)NC(C)(C)CC2=O)c2ccccc2O1` (some centres unmarked) [Example 78] and `CC(C)C1(C)CC(NC(=O)[C@H]2C[C@@H]2CN2C(=N)NC(C)(C)CC2=O)c2ccccc2O1` (some centres unmarked) [Example 79A] are within 1.5-fold of each other in EC50: 300 nM for the first, 255 nM for the second.

Going from `COCC[C@H]([C@H]1C[C@@H]1C(=O)N[C@H]1CC(C)(C)Oc2cc(C)ccc21)N1C(=N)NC(C)(C)CC1=O` [Example 83A] to `COCC[C@H]([C@H]1C[C@@H]1C(=O)N[C@@H]1CC(C)(C)Oc2cc(C)ccc21)N1C(=N)NC(C)(C)CC1=O` [Example 83B], the EC50 rises from 6.6 nM to 26 nM (3.9-fold).

Same assay, conditions: Table 3; 72 hours growth, LDH readout; read-out: EC50

Going from `CC1(C)CC(=O)N(C(c2cccnc2)[C@@H]2[C@@H](C(=O)N[C@H]3CC(C)(C)Oc4ccccc43)C2(C)C)C(=N)N1` (some centres unmarked) [Example 49B] to `CC1(C)CC(=O)N([C@H](c2cccnc2)[C@H]2C[C@@H]2C(=O)NC2CC(C)(C)Oc3cc(F)ccc32)C(=N)N1` (some centres unmarked) [Example 77B], the EC50 falls from 14 nM to 2.3 nM (6.1-fold).

Going from `CC1(C)CC(=O)N(C(c2cccc(C#N)c2)[C@H]2C[C@@H]2C(=O)NC2CC(C)(C)Oc3ccc(F)cc32)C(=N)N1` (some centres unmarked) [Example 53B] to `CC[C@@]1(C)CC(=O)N(C(c2cncc(F)c2)[C@H]2C[C@@H]2C(=O)N[C@H]2CC(C)(C)Oc3ccc(F)cc32)C(=N)N1` (some centres unmarked) [Example 69A], the EC50 falls from 2.1 nM to 1 nM (2.1-fold).

Compared with `COc1ccc2c(c1)OC(C)(C)C[C@@H]2NC(=O)[C@H]1C[C@@H]1[C@H](c1cccnc1)N1C(=N)NC(C)(C)CC1=O` [Example 65A], `CC[C@@]1(C)CC(=O)N(C(c2cncc(F)c2)[C@H]2C[C@@H]2C(=O)N[C@H]2CC(C)(C)Oc3ccccc32)C(=N)N1` (some centres unmarked) [Example 67B] is 4.7-fold lower in EC50: 2.8 nM for the first, 0.6 nM for the second. The second is the more potent here.

Compared with `COc1ccc2c(c1)OC(C)(C)C[C@@H]2NC(=O)[C@H]1C[C@@H]1[C@H](c1cccnc1)N1C(=N)NC(C)(C)CC1=O` [Example 65B], `COCC[C@H]([C@H]1C[C@@H]1C(=O)NC1CC(C)(C)Oc2cc(F)ccc21)N1C(=N)NC(C)(C)CC1=O` (some centres unmarked) [Example 76B] is 1.9-fold higher in EC50: 8 nM for the first, 15 nM for the second. The first is the more potent here.

Work on `CC[C@@]1(C)CC(=O)N(C(c2cncc(F)c2)[C@H]2C[C@@H]2C(=O)N[C@H]2CC(C)(C)Oc3ccc(F)cc32)C(=N)N1` (some centres unmarked) [Example 69B] yielded an EC50 of 1.9 nM.
`CC[C@@]1(C)CC(=O)N(C(c2cncc(F)c2)[C@H]2C[C@@H]2C(=O)N[C@H]2CC(C)(C)Oc3ccc(F)cc32)C(=N)N1` (some centres unmarked) [Example 69C] was tested, and the EC50 was 0.8 nM.
With `CC[C@@]1(C)CC(=O)N(C(c2cncc(F)c2)[C@H]2C[C@@H]2C(=O)N[C@H]2CC(C)(C)Oc3ccc(F)cc32)C(=N)N1` (some centres unmarked) [Example 69D] the EC50 was 0.3 nM.
Compound `CC[C@@]1(C)CC(=O)N(C(c2cncc(F)c2)[C@H]2C[C@@H]2C(=O)N[C@H]2CC(C)(C)Oc3ccc(F)cc32)C(=N)N1` (some centres unmarked) [Example 69E] has an EC50 of 300 nM.
